{"source": "patent US20230040770A1", "about": "“HETEROCYCLIC COMPOUND AND USE THEREOF” (TAKEDA PHARMACEUTICAL COMPANY LIMITED, priority 2019, published 2023)", "data": [{"target": "T1, human orexin type 2 receptor (Homo sapiens, UniProt O43614)", "T1 construct": "expressed in transfected cells", "T1 sequence (O43614 1-444)": "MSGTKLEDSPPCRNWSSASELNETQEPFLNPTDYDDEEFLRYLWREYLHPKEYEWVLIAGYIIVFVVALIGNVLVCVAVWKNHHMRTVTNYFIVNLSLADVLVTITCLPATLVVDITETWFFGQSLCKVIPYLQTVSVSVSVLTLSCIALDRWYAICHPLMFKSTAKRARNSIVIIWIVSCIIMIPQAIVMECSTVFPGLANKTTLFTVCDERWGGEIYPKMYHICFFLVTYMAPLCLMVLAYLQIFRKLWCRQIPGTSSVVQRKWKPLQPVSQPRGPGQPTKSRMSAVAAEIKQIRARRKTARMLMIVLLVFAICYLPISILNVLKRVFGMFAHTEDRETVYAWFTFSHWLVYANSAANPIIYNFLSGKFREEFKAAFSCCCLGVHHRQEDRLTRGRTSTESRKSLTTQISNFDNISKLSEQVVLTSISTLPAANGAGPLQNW", "test": "Measurement of orexin type 2 receptor agonist activity (calcium indicator fluorescence, CHO cells forcibly expressing human OX2 receptor)", "format": "cell-based", "details": "compound at 3 μM; 0% = DMSO, 100% = orexin A (human) 10 nM", "summary_of_the_method": "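Agonist response normalised between vehicle (0%) and orexin A at 10 nM final (100%), from kinetic Fluo-4 calcium signals recorded for about 2 min after compound addition. Cells: stable human OX2R CHO clone, dye-loaded 30 min at 37 °C plus 30 min at room temperature.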", "units": {"OX2R agonist activity (3 μM, %)": "%"}, "values": [{"smiles": "CS(=O)(=O)N[C@@H]1[C@H](Cc2cccc(-c3cccc(Cl)c3)c2F)N(C(=O)C2CC2)CC1(F)F", "note": "[Example 250, N-[(2S,3R)-2-[(3′-chloro-2-fluoro[1,1′-biphenyl]-3-yl)methyl]-1-(cyclopropanecarbonyl)-4,4-difluoropyrrolidin-3-yl]methanesulfonamide]", "OX2R agonist activity (3 μM, %)": 96}, {"smiles": "CCS(=O)(=O)N[C@@H]1[C@H](Cc2cccc(-c3cc(Cl)ccc3F)c2F)N(C(=O)C2CC2)CC1(F)F", "note": "[Example 251, N-[(2S,3R)-2-[(5′-chloro-2,2′-difluoro[1,1′-biphenyl]-3-yl)methyl]-1-(cyclopropanecarbonyl)-4,4-difluoropyrrolidin-3-yl]ethanesulfonamide]", "OX2R agonist activity (3 μM, %)": 91}, {"smiles": "CCCC(=O)N1CC(F)(F)[C@H](NS(=O)(=O)CC)[C@@H]1Cc1cccc(-c2cccc(F)c2)c1F", "note": "[Example 257, N-{(2S,3R)-1-butanoyl-2-[(2,3′-difluoro[1,1′-biphenyl]-3-yl)methyl]-4,4-difluoropyrrolidin-3-yl}ethanesulfonamide]", "OX2R agonist activity (3 μM, %)": 96}, {"smiles": "CS(=O)(=O)N[C@@H]1[C@H](Cc2cccc(-c3cccc(Cl)c3)c2F)N(C(=O)C2CCO2)CC1(F)F", "note": "(stereo partly drawn) [Example 259, N-[(2S,3R)-2-[(3′-chloro-2-fluoro[1,1′-biphenyl]-3-yl)methyl]-4,4-difluoro-1-(oxetane-2-carbonyl)pyrrolidin-3-yl]methanesulfonamide]", "OX2R agonist activity (3 μM, %)": 96}, {"smiles": "CS(=O)(=O)N[C@@H]1[C@H](Cc2cccc(-c3cccc(Cl)c3F)c2F)N(C(=O)C2CCO2)CC1(F)F", "note": "(stereo partly drawn) [Example 263, N-[(2S,3R)-2-[(3′-chloro-2,2′-difluoro[1,1′-biphenyl]-3-yl)methyl]-4,4-difluoro-1-(oxetane-2-carbonyl)pyrrolidin-3-yl]methanesulfonamide]", "OX2R agonist activity (3 μM, %)": 103}, {"smiles": "CS(=O)(=O)N[C@@H]1[C@H](Cc2cccc(-c3cccc(Cl)c3F)c2F)N(C(=O)C2CCO2)CC1(F)F", "note": "(stereo partly drawn) [Example 264, N-[(2S,3R)-2-[(3′-chloro-2,2′-difluoro[1,1′-biphenyl]-3-yl)methyl]-4,4-difluoro-1-(oxetane-2-carbonyl)pyrrolidin-3-yl]methanesulfonamide]", "OX2R agonist activity (3 μM, %)": 98}, {"smiles": "CS(=O)(=O)N[C@@H]1[C@H](Cc2cccc(-c3cc(F)cc(Cl)c3)c2F)N(C(=O)C2CCO2)CC1(F)F", "note": "(stereo partly drawn) [Example 265, N-[(2S,3R)-2-[(3′-chloro-2,5′-difluoro[1,1′-biphenyl]-3-yl)methyl]-4,4-difluoro-1-(oxetane-2-carbonyl)pyrrolidin-3-yl]methanesulfonamide]", "OX2R agonist activity (3 μM, %)": 96}, {"smiles": "CS(=O)(=O)N[C@@H]1[C@H](Cc2cccc(-c3cc(F)cc(Cl)c3)c2F)N(C(=O)C2CCO2)CC1(F)F", "note": "(stereo partly drawn) [Example 266, N-[(2S,3R)-2-[(3′-chloro-2,5′-difluoro[1,1′-biphenyl]-3-yl)methyl]-4,4-difluoro-1-(oxetane-2-carbonyl)pyrrolidin-3-yl]methanesulfonamide]", "OX2R agonist activity (3 μM, %)": 83}, {"smiles": "CCS(=O)(=O)N[C@@H]1[C@H](Cc2cccc(-c3cccc(Cl)c3)c2F)N(C(=O)C2CCO2)CC1(F)F", "note": "(stereo partly drawn) [Example 267, N-[(2S,3R)-2-[(3′-chloro-2-fluoro[1,1′-biphenyl]-3-yl)methyl]-4,4-difluoro-1-(oxetane-2-carbonyl)pyrrolidin-3-yl]ethanesulfonamide]", "OX2R agonist activity (3 μM, %)": 92}, {"smiles": "CCS(=O)(=O)N[C@@H]1[C@H](Cc2cccc(-c3cccc(Cl)c3)c2F)N(C(=O)C2CCO2)CC1(F)F", "note": "(stereo partly drawn) [Example 268, N-[(2S,3R)-2-[(3′-chloro-2-fluoro[1,1′-biphenyl]-3-yl)methyl]-4,4-difluoro-1-(oxetane-2-carbonyl)pyrrolidin-3-yl]ethanesulfonamide]", "OX2R agonist activity (3 μM, %)": 94}, {"smiles": "CCS(=O)(=O)N[C@@H]1[C@H](Cc2cccc(-c3cc(F)cc(F)c3)c2F)N(C(=O)C2(O)CCC2)CC1(F)F", "note": "[Example 272, N-{(2S,3R)-4,4-difluoro-1-(1-hydroxycyclobutane-1-carbonyl)-2-[(2,3′,5′-trifluoro[1,1′-biphenyl]-3-yl)methyl]pyrrolidin-3-yl}ethanesulfonamide]", "OX2R agonist activity (3 μM, %)": 88}, {"smiles": "CCS(=O)(=O)N[C@@H]1[C@H](Cc2cccc(-c3cccc(F)c3)c2F)N(C(=O)C2(O)CCC2)CC1(F)F", "note": "[Example 273, N-[(2S,3R)-2-[(2,3′-difluoro[1,1′-biphenyl]-3-yl)methyl]-4,4-difluoro-1-(1-hydroxycyclobutane-1-carbonyl)pyrrolidin-3-yl]ethanesulfonamide]", "OX2R agonist activity (3 μM, %)": 83}, {"smiles": "CCS(=O)(=O)N[C@@H]1[C@H](Cc2cccc(-c3cccc(F)c3F)c2F)N(C(=O)C2(O)CCC2)CC1(F)F", "note": "[Example 274, N-{(2S,3R)-4,4-difluoro-1-(1-hydroxycyclobutane-1-carbonyl)-2-[(2,2′,3′-trifluoro[1,1′-biphenyl]-3-yl)methyl]pyrrolidin-3-yl}ethanesulfonamide]", "OX2R agonist activity (3 μM, %)": 93}, {"smiles": "CCS(=O)(=O)N[C@@H]1[C@H](Cc2cccc(-c3cccc(C)c3)c2F)N(C(=O)C2(O)CCC2)CC1(F)F", "note": "[Example 275, N-[(2S,3R)-4,4-difluoro-2-[(2-fluoro-3′-methyl[1,1′-biphenyl]-3-yl)methyl]-1-(1-hydroxycyclobutane-1-carbonyl)pyrrolidin-3-yl]ethanesulfonamide]", "OX2R agonist activity (3 μM, %)": 85}, {"smiles": "CCS(=O)(=O)N[C@@H]1[C@H](Cc2cccc(-c3cccc(C)c3F)c2F)N(C(=O)C2(O)CCC2)CC1(F)F", "note": "[Example 276, N-[(2S,3R)-2-[(2,2′-difluoro-3′-methyl[1,1′-biphenyl]-3-yl)methyl]-4,4-difluoro-1-(1-hydroxycyclobutane-1-carbonyl)pyrrolidin-3-yl]ethanesulfonamide]", "OX2R agonist activity (3 μM, %)": 88}, {"smiles": "CCS(=O)(=O)N[C@@H]1[C@H](Cc2cccc(-c3cccc(C)c3)c2F)N(C(=O)C2CCO2)CC1(F)F", "note": "(stereo partly drawn) [Example 277, N-[(2S,3R)-4,4-difluoro-2-[(2-fluoro-3′-methyl[1,1′-biphenyl]-3-yl)methyl]-1-(oxetane-2-carbonyl)pyrrolidin-3-yl]ethanesulfonamide]", "OX2R agonist activity (3 μM, %)": 94}, {"smiles": "CCS(=O)(=O)N[C@@H]1[C@H](Cc2cccc(-c3cc(F)cc(F)c3)c2F)N(C(=O)N(C)C)CC1(F)F", "note": "[Example 282, (2S,3R)-3-[(ethanesulfonyl)amino]-4,4-difluoro-N,N-dimethyl-2-[(2,3′,5′-trifluoro[1,1′-biphenyl]-3-yl)methyl]pyrrolidine-1-carboxamide]", "OX2R agonist activity (3 μM, %)": 96}, {"smiles": "CCS(=O)(=O)N[C@@H]1[C@H](Cc2cccc(-c3cc(F)cc(F)c3)c2F)N(C(=O)N2CCC2)CC1(F)F", "note": "[Example 283, N-{(2S,3R)-1-(azetidine-1-carbonyl)-4,4-difluoro-2-[(2,3′,5′-trifluoro[1,1′-biphenyl]-3-yl)methyl]pyrrolidin-3-yl}ethanesulfonamide]", "OX2R agonist activity (3 μM, %)": 93}, {"smiles": "CCS(=O)(=O)N[C@@H]1[C@H](Cc2cccc(-c3cccc(C)c3)c2F)N(C(=O)N(C)C)CC1(F)F", "note": "[Example 284, (2S,3R)-3-[(ethanesulfonyl)amino]-4,4-difluoro-2-[(2-fluoro-3′-methyl[1,1′-biphenyl]-3-yl)methyl]-N,N-dimethylpyrrolidine-1-carboxamide]", "OX2R agonist activity (3 μM, %)": 92}, {"smiles": "CCS(=O)(=O)N[C@@H]1[C@H](Cc2cccc(-c3cccc(C)c3)c2F)N(C(=O)N2CCC2)CC1(F)F", "note": "[Example 285, N-{(2S,3R)-1-(azetidine-1-carbonyl)-4,4-difluoro-2-[(2-fluoro-3′-methyl[1,1′-biphenyl]-3-yl)methyl]pyrrolidin-3-yl}ethanesulfonamdie]", "OX2R agonist activity (3 μM, %)": 98}, {"smiles": "CCS(=O)(=O)N[C@@H]1[C@H](Cc2cccc(-c3cccc(F)c3)c2F)N(C(=O)N2CCC2)CC1(F)F", "note": "[Example 287, N-{(2S,3R)-1-(azetidine-1-carbonyl)-2-[(2,3′-difluoro[1,1′-biphenyl]-3-yl)methyl]-4,4-difluoropyrrolidin-3-yl}ethanesulfonamide]", "OX2R agonist activity (3 μM, %)": 94}, {"smiles": "CCS(=O)(=O)N[C@@H]1[C@H](Cc2cccc(-c3cccc(F)c3F)c2F)N(C(=O)N2CCC2)CC1(F)F", "note": "[Example 289, N-{(2S,3R)-1-(azetidine-1-carbonyl)-4,4-difluoro-2-[(2,2′,3′-trifluoro[1,1′-biphenyl]-3-yl)methyl]pyrrolidin-3-yl}ethanesulfonamide]", "OX2R agonist activity (3 μM, %)": 80}, {"smiles": "CCS(=O)(=O)N[C@@H]1[C@H](Cc2cccc(-c3cccc(C)c3F)c2F)N(C(=O)N2CCC2)CC1(F)F", "note": "[Example 291, N-{(2S,3R)-1-(azetidine-1-carbonyl)-2-[(2,2′-difluoro-3′-methyl[1,1′-biphenyl]-3-yl)methyl]-4,4-difluoropyrrolidin-3-yl}ethanesulfonamide]", "OX2R agonist activity (3 μM, %)": 90}, {"smiles": "CCS(=O)(=O)N[C@H]1[C@@H](F)CN(C(=O)C(C)C)[C@H]1Cc1cccc(-c2cc(F)ccc2F)c1F", "note": "[Example 292, N-{(2S,3R,4S)-4-fluoro-1-(2-methylpropanoyl)-2-[(2,2′,5′-trifluoro[1,1′-biphenyl]-3-yl)methyl]pyrrolidin-3-yl}ethanesulfonamide]", "OX2R agonist activity (3 μM, %)": 87}, {"smiles": "CCS(=O)(=O)N[C@H]1[C@@H](F)CN(C(=O)C(C)C)[C@H]1Cc1cccc(-c2ccccc2)c1F", "note": "[Example 293, N-[(2S,3R,4S)-4-fluoro-2-[(2-fluoro[1,1′-biphenyl]-3-yl)methyl]-1-(2-methylpropanoyl)pyrrolidin-3-yl]ethanesulfonamide]", "OX2R agonist activity (3 μM, %)": 83}]}]}
